ChEMBL document CHEMBL1201862, “PubChem BioAssay data set” (2004)
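Compound exposure: 48 hours, 5 concentrations, 96-well plates. GI50: concentration for 50% inhibition of growth.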 Activity calls are given as the source filed them. Rule as the data show it: active = GI50 up to about 1.1 µM and inactive = higher.

Columns and labels:
Assay in all cases: DTP human tumour cell line panel, 48 h
SK-MEL-5 = system: SK-MEL-5
KM12 = system: KM12
IGROV-1 = system: IGROV-1
HT-29 = system: HT-29
HL-60 = system: HL-60
SF-268 = system: SF-268
RXF 393 = system: RXF 393
NCI/ADR-RES = system: NCI/ADR-RES
HCC 2998 = system: HCC 2998
SK-MEL-28 = system: SK-MEL-28
SR = system: SR
A549 = system: A549
HOP-92 = system: HOP-92
BT-549 = system: BT-549
ACHN = system: ACHN
SK-MEL-2 = system: SK-MEL-2
CAKI-1 = system: CAKI-1
SNB-75 = system: SNB-75
OVCAR-8 = system: OVCAR-8

Row | SMILES | GI50 (SK-MEL-5) | GI50 (KM12) | GI50 (IGROV-1) | GI50 (HT-29) | GI50 (HL-60) | GI50 (SF-268) | GI50 (RXF 393) | GI50 (NCI/ADR-RES) | GI50 (HCC 2998) | GI50 (SK-MEL-28) | GI50 (SR) | GI50 (A549) | GI50 (HOP-92) | GI50 (BT-549) | GI50 (ACHN) | GI50 (SK-MEL-2) | GI50 (CAKI-1) | GI50 (SNB-75) | GI50 (OVCAR-8)
1 | COc1ccc(C2=NN=C3C(c4ccccc4)=Nc4ccccc4N3C2)cc1 | 21.3 µM (inactive) | 21.4 µM (inactive) | 29.4 µM (inactive) | 20.1 µM (inactive) | 7.55 µM (inactive) | 13.6 µM (inactive) | 10.9 µM (inactive) | 10.8 µM (inactive) | 46.8 µM (inactive) | 12 µM (inactive) | 3.04 µM (inactive) | 35.7 µM (inactive) | 85.9 µM (inactive) | 40 µM (inactive) | 14.1 µM (inactive) | 22.6 µM (inactive) | – | – | –
2 | c1csc(-c2ccc(-c3ccc(-c4cccs4)s3)s2)c1 | > 100 µM (inactive) | > 100 µM (inactive) | > 100 µM (inactive) | > 100 µM (inactive) | > 100 µM (inactive) | > 100 µM (inactive) | > 100 µM (inactive) | > 100 µM (inactive) | > 100 µM (inactive) | > 100 µM (inactive) | > 100 µM (inactive) | > 100 µM (inactive) | – | > 100 µM (inactive) | > 100 µM (inactive) | > 100 µM (inactive) | > 100 µM (inactive) | > 100 µM (inactive) | > 100 µM (inactive)
3 | CCOC(=O)CC(=O)C(=O)NN=C1NCCN1 | > 100 µM (inactive) | > 100 µM (inactive) | > 100 µM (inactive) | > 100 µM (inactive) | > 100 µM (inactive) | > 100 µM (inactive) | > 100 µM (inactive) | > 100 µM (inactive) | > 100 µM (inactive) | > 100 µM (inactive) | > 100 µM (inactive) | > 100 µM (inactive) | > 100 µM (inactive) | > 100 µM (inactive) | > 100 µM (inactive) | > 100 µM (inactive) | – | > 100 µM (inactive) | > 100 µM (inactive)
4 | C[C@H](NC1=CC(=O)C(N[C@@H](C)[C@H](O)c2ccccc2)=CC1=O)[C@H](O)c1ccccc1 | 49.5 µM (inactive) | 59.3 µM (inactive) | > 100 µM (inactive) | 27.3 µM (inactive) | > 100 µM (inactive) | > 100 µM (inactive) | > 100 µM (inactive) | 92.7 µM (inactive) | – | > 100 µM (inactive) | 14.6 µM (inactive) | 95.3 µM (inactive) | > 100 µM (inactive) | 52.8 µM (inactive) | 96.6 µM (inactive) | > 100 µM (inactive) | > 100 µM (inactive) | – | > 100 µM (inactive)
5 | O=c1[nH]c(Nc2nc3ccccc3[nH]2)nc(O)c1-c1ccccc1 | > 100 µM (inactive) | – | > 100 µM (inactive) | > 100 µM (inactive) | – | > 100 µM (inactive) | > 100 µM (inactive) | > 100 µM (inactive) | > 100 µM (inactive) | > 100 µM (inactive) | > 100 µM (inactive) | > 100 µM (inactive) | > 100 µM (inactive) | > 100 µM (inactive) | > 100 µM (inactive) | > 100 µM (inactive) | > 100 µM (inactive) | > 100 µM (inactive) | > 100 µM (inactive)
6 | NC(=O)C1CCCN1Cc1ccc2c(c1)OCO2 (stereo unspecified) | > 100 µM (inactive) | > 100 µM (inactive) | > 100 µM (inactive) | > 100 µM (inactive) | > 100 µM (inactive) | > 100 µM (inactive) | > 100 µM (inactive) | > 100 µM (inactive) | – | > 100 µM (inactive) | > 100 µM (inactive) | > 100 µM (inactive) | > 100 µM (inactive) | > 100 µM (inactive) | > 100 µM (inactive) | > 100 µM (inactive) | > 100 µM (inactive) | > 100 µM (inactive) | > 100 µM (inactive)
7 | Cc1ccc(-c2cc(N)n(-c3nc4c(c(=O)n(C)c(=O)n4C)n3C)n2)cc1 | 32.4 µM (inactive) | > 100 µM (inactive) | > 100 µM (inactive) | > 100 µM (inactive) | > 100 µM (inactive) | 43.7 µM (inactive) | > 100 µM (inactive) | 95.1 µM (inactive) | > 100 µM (inactive) | 23.1 µM (inactive) | > 100 µM (inactive) | > 100 µM (inactive) | > 100 µM (inactive) | > 100 µM (inactive) | > 100 µM (inactive) | > 100 µM (inactive) | > 100 µM (inactive) | – | > 100 µM (inactive)
8 | O=C(CC(C(=O)c1cccs1)c1ccsc1)c1cccs1 (stereo unspecified) | 47.3 µM (inactive) | 71.3 µM (inactive) | > 100 µM (inactive) | > 100 µM (inactive) | – | > 100 µM (inactive) | 53.6 µM (inactive) | 31.9 µM (inactive) | 83.9 µM (inactive) | 81.5 µM (inactive) | 36 µM (inactive) | 91 µM (inactive) | 94.2 µM (inactive) | 81.8 µM (inactive) | > 100 µM (inactive) | – | > 100 µM (inactive) | 12.8 µM (inactive) | > 100 µM (inactive)
9 | COc1ccc(CC(=O)N2CCC3(C)CC(=O)CC=C23)cc1OC (stereo unspecified) | > 100 µM (inactive) | > 100 µM (inactive) | > 100 µM (inactive) | > 100 µM (inactive) | > 100 µM (inactive) | > 100 µM (inactive) | > 100 µM (inactive) | > 100 µM (inactive) | – | > 100 µM (inactive) | > 100 µM (inactive) | > 100 µM (inactive) | > 100 µM (inactive) | > 100 µM (inactive) | > 100 µM (inactive) | > 100 µM (inactive) | > 100 µM (inactive) | – | > 100 µM (inactive)
10 | O=C(c1cccnc1)N1N=C(c2ccccc2)CC1(O)c1cc(F)c(Cl)cc1Cl (stereo unspecified) | 13.9 µM (inactive) | 25.6 µM (inactive) | 10.4 µM (inactive) | 19.6 µM (inactive) | 21.4 µM (inactive) | 30.5 µM (inactive) | 16.7 µM (inactive) | 23.5 µM (inactive) | – | 25.1 µM (inactive) | 22.5 µM (inactive) | 27.6 µM (inactive) | 20.7 µM (inactive) | 20.3 µM (inactive) | 23.2 µM (inactive) | 19.4 µM (inactive) | 33.3 µM (inactive) | 16.4 µM (inactive) | 25.5 µM (inactive)
11 | Fc1c(F)c(C(F)(F)F)c(F)c(F)c1N/N=C/c1cn(Cc2ccccc2)c2ccccc12 | 18.2 µM (inactive) | 20 µM (inactive) | 27.5 µM (inactive) | 18.2 µM (inactive) | 21.8 µM (inactive) | 43.2 µM (inactive) | 17.7 µM (inactive) | 24.7 µM (inactive) | – | 34.8 µM (inactive) | 22.9 µM (inactive) | 27.9 µM (inactive) | 24 µM (inactive) | 30.2 µM (inactive) | 26.7 µM (inactive) | 25.6 µM (inactive) | 21.3 µM (inactive) | 20 µM (inactive) | 36.6 µM (inactive)
12 | Cn1c(=O)c2nc(CS(=O)(=O)Cc3nc4c(=O)n(C)c(=O)n(C)c4[nH]3)[nH]c2n(C)c1=O | > 100 µM (inactive) | > 100 µM (inactive) | > 100 µM (inactive) | > 100 µM (inactive) | > 100 µM (inactive) | > 100 µM (inactive) | > 100 µM (inactive) | > 100 µM (inactive) | – | > 100 µM (inactive) | > 100 µM (inactive) | > 100 µM (inactive) | – | > 100 µM (inactive) | > 100 µM (inactive) | > 100 µM (inactive) | > 100 µM (inactive) | > 100 µM (inactive) | > 100 µM (inactive)
13 | CC(C)[C@@H](C)[C@@]1(C)C[C@@H]1[C@@H](C)[C@H]1CC[C@@H]([C@@H]2CC=C3C[C@@H](O)CC[C@]3(C)C2=O)[C@]1(C)CCO | 13.1 µM (inactive) | 2.82 µM (inactive) | 15.6 µM (inactive) | 2.58 µM (inactive) | 2.11 µM (inactive) | 15.5 µM (inactive) | 3.3 µM (inactive) | 13.4 µM (inactive) | 4.2 µM (inactive) | 7.53 µM (inactive) | 2.69 µM (inactive) | – | – | 16.6 µM (inactive) | 12.5 µM (inactive) | 18.3 µM (inactive) | 12.8 µM (inactive) | 5.66 µM (inactive) | 12.7 µM (inactive)
14 | CNC(=O)c1cc2nc3ccccc3c(=O)n2c2ccccc12 | > 10 µM (inactive) | > 10 µM (inactive) | > 10 µM (inactive) | > 10 µM (inactive) | > 10 µM (inactive) | > 10 µM (inactive) | > 10 µM (inactive) | > 10 µM (inactive) | > 10 µM (inactive) | > 10 µM (inactive) | > 10 µM (inactive) | > 10 µM (inactive) | > 10 µM (inactive) | > 10 µM (inactive) | > 10 µM (inactive) | > 10 µM (inactive) | > 10 µM (inactive) | – | > 10 µM (inactive)
15 | O=c1c2cc(S(=O)(=O)O)ccc2nc(COc2ccc(Oc3ccc(Cl)cc3Cl)cc2)n1C(=S)Nc1ccc(Cl)cc1 | 17.7 µM (inactive) | 22.5 µM (inactive) | 28.3 µM (inactive) | 20.6 µM (inactive) | 0.457 µM (active) | 16.3 µM (inactive) | 15 µM (inactive) | 17.7 µM (inactive) | – | – | 1.53 µM (inactive) | 20.5 µM (inactive) | 18.1 µM (inactive) | 19.6 µM (inactive) | 23.6 µM (inactive) | 18.4 µM (inactive) | 27.9 µM (inactive) | 18.8 µM (inactive) | 21.6 µM (inactive)
